Assay results: the NIST ThermoML archive (doi:10.1021/je800863c)
Numbers after ± are expanded uncertainties.

Details: for surface tension liquid-gas: Pendant drop shape; for viscosity / mass density: 101.33 kPa, Liquid; for viscosity: Falling or rolling sphere viscometry; for mass density: Vibrating tube method

SMILES	surface tension liquid-gas (298.15 K)	viscosity (298.15 K)	mass density (298.15 K)	surface tension liquid-gas (313.15 K)	viscosity (313.15 K)	mass density (313.15 K)
CCCCCCn1cc[n+](C)c1.CCOS(=O)(=O)[O-] [1-hexyl-3-methylimidazolium ethyl sulfate]	31.77 ± 0.45 mN/m	589 ± 57 mPa·s	1150.6 ± 1.2 kg/m3	29.63 ± 0.43 mN/m	236 ± 19 mPa·s	1140.6 ± 1.1 kg/m3
COS(=O)(=O)[O-].Cn1cc[n+](C)c1 [1,3-dimethylimidazolium methylsulfate]	59.42 ± 0.8 mN/m	75.5 ± 4.7 mPa·s	1328.38 ± 1.6 kg/m3	58.99 ± 0.8 mN/m	40.8 ± 2.5 mPa·s	1317.85 ± 1.6 kg/m3
CCCCCCCC[n+]1ccn(C)c1.CCOS(=O)(=O)[O-] [1-methyl-3-octylimidazolium ethyl sulfate]	28.67 ± 0.41 mN/m	–	1115.93 ± 1.1 kg/m3	27.94 ± 0.41 mN/m	275.2 ± 25 mPa·s	1106.2 ± 1.1 kg/m3
CCCCCCCC[n+]1ccn(C)c1.COS(=O)(=O)[O-] [1-methyl-3-octylimidazolium methyl sulfate]	30.41 ± 0.44 mN/m	–	1114.47 ± 1.1 kg/m3	30.03 ± 0.43 mN/m	180.6 ± 15 mPa·s	1104.64 ± 1.1 kg/m3
CCCCn1cc[n+](C)c1.CCOS(=O)(=O)[O-] [1-butyl-3-methyl-1H-imidazolium ethyl sulfate]	36.38 ± 0.51 mN/m	379.1 ± 33 mPa·s	1198.93 ± 1.3 kg/m3	33.91 ± 0.48 mN/m	164 ± 12 mPa·s	1188.69 ± 1.2 kg/m3
CCCCCCn1cc[n+](C)c1.COS(=O)(=O)[O-] [1-hexyl-3-methylimidazolium methyl sulfate]	33.59 ± 0.48 mN/m	383 ± 34 mPa·s	1168.83 ± 1.2 kg/m3	33.54 ± 0.48 mN/m	164.3 ± 12 mPa·s	1158.87 ± 1.2 kg/m3
CCCCn1cc[n+](C)c1.COS(=O)(=O)[O-] [1-butyl-3-methylimidazolium methyl sulfate]	43.3 ± 1.2 mN/m	–	1212.95 ± 8 kg/m3	42.09 ± 1.1 mN/m	104.2 ± 7.7 mPa·s	1199.75 ± 7.8 kg/m3
CCOS(=O)(=O)[O-].CCn1cc[n+](C)c1 [1-ethyl-3-methylimidazolium ethyl sulfate]	–	91.8 ± 6.2 mPa·s	1236.26 ± 8.3 kg/m3	46.78 ± 1.2 mN/m	48.5 ± 3.2 mPa·s	1226.79 ± 8.2 kg/m3
